The text below walks through data of US6156316A, “Oncogene fusion protein peptide vaccines” (Sloan-Kettering Institute for Cancer Research, priority 1995, dated 2000).

The target in one test is T1, HLA A2.1 (Homo sapiens, UniProt P04439, D140Y/D185E/D98H/E176V/E277Q/G131W/G231S/I119V/I121R/I166T/I218V/L300P/L318F/N151K/N90K/P208A/P217A/Q86G/Q94H/R138H/R169H/T345S).
T1 construct: endogenous in cells
The test is described as follows: biochemical. The class given is binding. The text has this: (§1) Purification of HLA class I molecules.

A further test has as its target HLA B7 (Homo sapiens, UniProt P01889). The test is described as follows: biochemical.
A further test has as its target T2, HLA A3.2 (Homo sapiens, UniProt P04439).
T2 construct: endogenous in cells
The test is described as follows: biochemical. The class given is binding.
Text: as §1

The test system of the next test is FeLV subunit vaccine. Particulars: cats; cited from earlier work.
Test [1] has as its system HIV-1 recombinant vaccine. Particulars: Rhesus monkeys; cited from earlier work.
Where [2] appears, read: AFFINITY (nM) A3.2, Table 1, CML peptides, 50% inhibition of standard peptide binding.
The mark [3] stands for this setting: concentration for 50% inhibition, HLA A3.2, text b187.

Read-outs that look alike come from different tables or passages of the source. No end group written: not given here. Where only a bound is given, the exact number is not on record here.

T2 sequence (P61769 21-119): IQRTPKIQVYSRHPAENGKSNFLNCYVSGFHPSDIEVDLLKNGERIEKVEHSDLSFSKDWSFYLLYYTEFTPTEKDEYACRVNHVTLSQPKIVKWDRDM
T2 sequence (P04439 25-365): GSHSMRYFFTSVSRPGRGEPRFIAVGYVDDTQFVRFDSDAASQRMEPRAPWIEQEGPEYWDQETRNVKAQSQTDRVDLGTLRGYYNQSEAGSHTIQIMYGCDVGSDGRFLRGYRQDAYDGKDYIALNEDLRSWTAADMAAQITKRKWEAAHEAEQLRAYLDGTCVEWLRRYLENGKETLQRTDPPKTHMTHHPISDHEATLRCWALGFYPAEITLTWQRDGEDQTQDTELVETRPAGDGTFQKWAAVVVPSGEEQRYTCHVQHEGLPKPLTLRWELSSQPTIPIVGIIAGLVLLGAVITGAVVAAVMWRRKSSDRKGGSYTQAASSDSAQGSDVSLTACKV
HLA B7, sequence (P01889 25-362): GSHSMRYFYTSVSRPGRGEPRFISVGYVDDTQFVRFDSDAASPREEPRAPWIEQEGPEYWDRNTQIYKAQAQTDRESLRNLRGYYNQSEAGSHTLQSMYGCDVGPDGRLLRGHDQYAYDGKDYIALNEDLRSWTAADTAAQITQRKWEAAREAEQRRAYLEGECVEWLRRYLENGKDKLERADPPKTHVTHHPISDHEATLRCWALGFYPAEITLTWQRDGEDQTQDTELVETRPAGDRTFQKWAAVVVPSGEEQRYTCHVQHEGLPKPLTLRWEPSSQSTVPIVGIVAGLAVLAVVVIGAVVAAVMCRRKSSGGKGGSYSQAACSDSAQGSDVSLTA
HLA B7, sequence (P61769 21-119, further chain): as the sequence (P61769 21-119) above
Description for HLA B7: Standard peptides known to bind efficiently to HLA A1, A2.1, A3.2, A11, A24, B7, B8, B27 were synthesized and ^125 I-labeled by Cytel, San Diego, Calif. as described (14,15).
MHC binding assay. Peptide binding to purified MHC class I molecules was measured as described (14,15). Briefly, the assay is based on the inhibition of binding of the radiolabeled standard peptide described above to detergent solubilized purified MHC molecules. HLA concentrations (about 10 nM) yielding 15% bound standard peptide were used in the inhibition assay. A serial dilution of CML or APL breakpoint spanning peptide (30 uM to 1 nM) were incubated together with 5 Mn of the radiolabeled standard peptide and matched appropriate HLA molecule. The percent MHC-bound radioactivity was then determined by gel filtration, and the inhibition calculated.

For orientation: IC50 means the concentration needed to halve the response being measured. With `CC[C@H](C)[C@H](NC(=O)[C@@H](NC(=O)[C@@H](N)CC(C)C)[C@@H](C)O)C(=O)N[C@@H](CC(N)=O)C(=O)N[C@@H](CCCCN)C(=O)N[C@@H](CCC(=O)O)C(=O)N[C@@H](CCC(=O)O)C(=O)N[C@@H](C)C(=O)N[C@@H](CC(C)C)C(=O)O` [LTINKEEAL], at HLA A2.1, the IC50 was > 30 µM.
On to IPLTINKEEAL [IPLTINKEEAL], for which the half-inhibitory concentration (IC50) against HLA B7 was > 30 µM.
As for TINKEEALQR, the IC50 on HLA A3.2 (setting [2]) was > 30000 nM.
Turning to DLSSCITQGKA, the IC50 on HLA A2.1 is > 50 µM.
On the same count and under the same terms, the value for CITQGKAI was > 50 µM; that for VASGAGEAAI was > 50 µM.
Same read-out and setting: the value for PLTINKEEA was > 30 µM; that for ATGFKQSSKAL [ATGFKQSSKAL] was > 30 µM; that for TINKEEAL [TINKEEAL] was > 30 µM.
On to HVASGAGEAAI, for which, on HLA A2.1, the IC50 was > 50 µM.
In the case of SATGFKQSSK, at HLA A3.2 (setting [2]), the IC50 was determined as 5450 nM.
On to LTINKEEALQR, for which the concentration for half-maximal inhibition (IC50) against HLA A3.2 is > 30000 nM.
As for HSATGFKQSSK, the IC50 on HLA A3.2 (setting [2]) and against HLA A3.2 (setting [3]) was 400 nM each time.
Take QSSKALQR: at HLA A3.2, the IC50 was > 30000 nM.
In the case of FKQSSKALQR, the IC50 on HLA A3.2 (setting [2]) turned out to be 545 nM.
In the case of QS-21, the “augmenting the immunogenicity of an FeLV subunit vaccine” value with FeLV subunit vaccine is reported as “highly effective”. Besides, the “augmenting the immunogenicity of an HIV-1 recombinant vaccine” value in test [1] is given as “highly effective”.
On to TGFKQSSK, for which the IC50 at HLA A3.2 (setting [2]) is > 30000 nM.
With PLTINKEEAL [PLTINKEEAL], the IC50 against HLA A2.1 is > 30 µM.
Take ATGFKQSSK: the IC50 is 300 nM at HLA A3.2 (setting [2]) and 100 to 500 nM against HLA A3.2 (setting [3]).
On to GFKQSSKALQR, for which the IC50 on HLA A3.2 (setting [2]) came out at 810 nM.
Regarding KQSSKALQR, at HLA A3.2, the IC50 is 43 nM.
